Experimental data from ChEMBL document CHEMBL1148031, “Rational design of inhibitors of VirA-VirG two-component signal transduction” (Bioorg Med Chem Lett, 2007).
pIC50: −log10 of the molar value.

These molecules were tested on Agrobacterium tumefaciens (assay: Inhibition of acetosyringone-induced virB::lacZ expression in Agrobacterium tumefaciens A348/pSW209).
Type: functional, organism-based
In the case of `COc1ccc2c(c1)C(O)OC2=O` (configuration not stated), the pIC50 was 4.39. Work on `O=CC(=O)Oc1ccccc1` yielded a pIC50 of 4.60. For `O=CC(=O)c1ccccc1` [PHENYLGLYOXAL], the pIC50 was 4.40. Molecule `COc1cc(OC)c(C(C)=O)c(C(C)=O)c1` has a pIC50 of under 3.70. Molecule `O=CCC(=O)N(O)c1ccccc1` has a pIC50 of under 3.40. `COc1cc(C=O)cc(OC)c1` showed a pIC50 of under 3.70. Molecule `COc1ccc2c(c1)C(=O)OC2O` (configuration not stated) has a pIC50 of under 3.70. Molecule `COc1cc(OC)c2c(c1N)C(=O)OC2O` (configuration not stated) has a pIC50 of under 3.70. With `COc1ccc(N(O)C(=O)C=O)c(O)c1` the pIC50 was 4.52. With `COc1cccc2c1C(=O)OC2O` (configuration not stated) the pIC50 was under 3.70. For `COc1cc(OC)c(C(C)=O)c(C(=O)O)c1`, the pIC50 was under 3.70. In the case of `COc1cc(OC)c([N+](=O)[O-])c2c1C(O)OC2=O` (configuration not stated), the pIC50 was under 3.70. Work on `COc1ccc(C=O)c(OC)c1` yielded a pIC50 of under 3.70. With `COc1ccc(N(OC)C(=O)C=O)c(O)c1` the pIC50 was over 6.00. For `COc1cc(OC)c(C=O)c(C(=O)O)c1`, the pIC50 was 5.10. `COc1ccccc1C(=O)C=O` was tested, and the pIC50 was 4.47. `CCCCC(=O)c1cc(OC)cc(OC)c1C=O` showed a pIC50 of 5.00. In the case of `COc1cc(OC)c2c(c1O)C(=O)OC2O` (configuration not stated), the pIC50 was under 4.00. `COc1cc(C=O)c(C(C)=O)c(OC)c1` gave a pIC50 of 4.60. Work on `CCCCC(=O)c1c(OC)cc(OC)cc1C(=O)O` yielded a pIC50 of under 3.70. In the case of `O=CC(=O)Nc1ccccc1`, the pIC50 was 4.46. In the case of `O=C1OC(O)c2ccccc21` (configuration not stated), the pIC50 was 4.60. In the case of `COc1cc(CC(=O)O)c(C=O)c(OC)c1`, the pIC50 was under 3.70. Work on `COc1cc(OC)c(C=O)c(C(C)=O)c1` yielded a pIC50 of 4.60. In the case of `CC(=O)c1ccccc1C=O`, the pIC50 was 4.60. `CCCCC(=O)c1ccccc1C=O` showed a pIC50 of 4.70. `CCOc1cc(OCC)c2c(c1)C(=O)OC2O` (configuration not stated) was tested, and the pIC50 was 5.10. `COc1cc(OC)c2c(c1NC(C)=O)C(=O)OC2O` (configuration not stated) was tested, and the pIC50 was under 3.70. Molecule `O=Cc1ccccc1C(=O)O` has a pIC50 of under 3.70. Molecule `O=CC(=O)N(O)c1ccccc1` has a pIC50 of 4.60. Work on `CCCCC(=O)c1c(C=O)cc(OC)cc1OC` yielded a pIC50 of 5.00. With `COc1cccc2c1C(O)OC2=O` (configuration not stated) the pIC50 was under 3.70.
